Experiments:
[1] = system: interaction between hLBP and E. coli LPS; experiment: ELISA: binding of biotinylated-LPS to surface-captured human LBP in the presence of peptides; details: LPS and peptide incubated 2 h at room temperature; fixed quantities of peptide
Description: This example describes the capacity of preferred peptides of the invention to block the interaction between LBP and E. coli LPS. An ELISA was used to determine the binding of biotinylated-LPS to surface-captured human LBP, in the presence or absence of fixed quantities of the selected peptides. LPS was biotinylated according to standard procedures. Human LBP (hLBP) was captured by using a specific monoclonal antibody, purified by affinity chromatography. Mixtures of LPS and each peptide were incubated during 2 h at room temperature, and then 100 μL were added to hLBP-containing wells. The binding of biotinylated-LPS to hLBP was detected with horseradish peroxidase-conjugated streptavidin. The assay was developed by adding a chromogenic substrate. […] Each experiment recorded the interaction of hLBP and biotinylated-LPS in absence of peptides, in presence of LBP86-99, and in the example presented in FIG. 2 the effect of a non-related cationic peptide (C5,3).
Human LBP was captured to the plates using a specific monoclonal antibody. Binding of biotinylated-LPS was detected with an streptavidin-horseradish peroxidase conjugate. The extent to which the peptide LBP86-99 (LBP) inhibits this interaction is also shown.
The experimental conditions were similar to those described in FIG. 1. The effect of a non-related cationic peptide, C5,3 is also included.

[2] = system: LPS-induced human peripheral blood mononuclear cells (PBMC); experiment: Release of TNF by LPS-induced human PBMC; type: cell-based; details: E. coli 0111:B4 LPS incubated with peptide 2 h at 37° C.; human LBP 200 ng/mL; TNFα in supernatants after 18 h; average of three experiments
Experimental: In order to determine if the peptides of the present invention were able to neutralize LPS-mediated responses, their ability to reduce the release of TNF by LPS-activated human peripheral blood cells was estimated. This assay evaluates the release of TNF by LPS-induced human peripheral blood mononuclear cells (PBMC), using concentrations of LPS commonly found in septic patients. LPS was incubated with fixed concentrations of each peptide during 2 h at 37° C. and the mixtures were then added to PBMC. The culture medium was supplemented with human LBP (200 ng/mL) and plates were incubated at 37° C. in a 5% CO2 atmosphere. TNFα was measured in culture supernatants after 18 h using a human TNF-α specific ELISA. FIG. 4 represents the average results from three different experiments. […] LBPA95 and LBPA96. […] Similar results were observed when other concentrations of LPS (2 or 10 ng/mL) and hLBP (20 or 100 ng/mL) were used.
The effects on this assay of LBP86-99 (LBP), LBPA91, B6,1 and polymyxin B (PMB) are also shown.

[3] = system: LPS-stimulated human PBMC; experiment: LPS-induced IL-6 production in cultures of human PBMC; type: cell-based; details: at every hLBP concentrations tested
Experimental: In order to determine if the peptides of the present invention were able to neutralize LPS-mediated responses, their ability to reduce the release of TNF by LPS-activated human peripheral blood cells was estimated. This assay evaluates the release of TNF by LPS-induced human peripheral blood mononuclear cells (PBMC), using concentrations of LPS commonly found in septic patients. LPS was incubated with fixed concentrations of each peptide during 2 h at 37° C. and the mixtures were then added to PBMC. The culture medium was supplemented with human LBP (200 ng/mL) and plates were incubated at 37° C. in a 5% CO2 atmosphere. TNFα was measured in culture supernatants after 18 h using a human TNF-α specific ELISA. […]
This invention provides peptides with advantageous functions over other LBP-derived peptides that have the native sequence or different a.a. replacements to those herein described at positions +1, +5, +6, +7, +9, +10, +11, +12 and +13. […] IL-6 was measured in culture supernatants after 18 h using a human IL-6 specific ELISA. In the represented experiment, the following peptides were evaluated; LPB86-99, LBP-H (LBP86-101, SEQ ID NO. 56)^13, LBPA94, LBPA95, and LBPA98. […]
Results are expressed as % inhibition of IL-6 release compared with the cytokine production in the absence of peptides The effects on this assay of LBP86-99, (LBP), LBP-H and B6,1 are also shown.

[4] = system: E. coli LPS lethal challenge in BALB/c mice; experiment: Endotoxin shock model in Actinomycin D-sensitized mice, survival; type: in vivo; details: Actinomycin D 7.5 μg i.p., E. coli LPS 1 μg/mouse mixed with peptide (1 h, 37° C.), equimolar doses, survival over 120 h, p<0.05 vs. vehicle or B6,1
Experimental: An endotoxin shock animal model was used to determine if the peptides of this invention were able to block complex physiological responses triggered by LPS. In this model mice were sensitized with Actinomycin D to increase LPS-mediated toxic responses. With this purpose, Actinomycin D (7.5 μg) was administered i.p. to 6 to 8 weeks-old female mice. Simultaneously each mice received LPS, and survival was evaluated every 24 h during 120 h.
The effect of peptides of the present invention on mice survival was assessed by administering E. coli LPS (1 μg/mouse in saline vehicle) or LPS:peptide mixtures mixtures (previously incubated during 1 h at 37° C.) to BALB/c sensitized mice. FIG. 6 represents the results of a representative experiment where the following peptides were each administered at equimolar doses to groups of 20 mice: LBP86-99, LBPA94, LBPAs95, LBPA98 or B6, 1 (cationic, non-related peptide). […] The aforementioned in vivo neutralizing property of the peptides of the invention is relevant for their application in prophylactic or therapeutic methods for sepsis and other associated disorders.
Survival in groups of BALB/c mice treated with LBP86-99 (LBP) and B6,1 is also shown. Mice survival was recorded each 24 h during 120 h.

Substance	interaction between hLBP and E. coli LPS (binding of biotinylated-LPS to captured hLBP) [1]	LPS-stimulated TNF release by human PBMC [2]	reduction of the LPS-triggered response (IL-6) [3]	mice survival [4]
LBPA96: LBP 86-99 peptide analogue, SEQ ID No.6 (RVQGRWKVRKAFFK)	notably impaired	Reduced levels of cytokine release		
LBPA90: LBP 86-99 peptide analogue, SEQ ID No.3 (RVQGAWKVRKSFFK)	notably impaired			
LBPA97: peptide with a residue at +6, +7 or +12 distinct from those of the invention, SEQ ID No.54 (RVQGRWKVRKSAFK)	not affected			
LBPA95: LBP 86-99 peptide analogue, SEQ ID No.5, essential a.a. at position +10 (RVQGRWKVRASFFK)	notably impaired	Reduced levels of cytokine release	more than 70%	significantly increased
LBPA98: LBP 86-99 peptide analogue, SEQ ID No.7, essential a.a. at position +13 (RVQGRWKVRKSFAK)	notably impaired			significantly increased
LBPA91: peptide which has tryptophan residue at position (6) replaced with alanine, SEQ ID No.55 (RVQGRAKVRKSFFK)	not affected	did not inhibit		
LBPA92: peptide with a residue at +6, +7 or +12 distinct from those of the invention, SEQ ID No.53 (RVQGRWAVRKSFFK)	not affected			
LBP86-99: peptide with the native sequence of the 86-99 a.a. region of human LBP mature protein (RVQGRWKVRKSFFK) [reference compound]		Reduced levels of cytokine release		only marginally
LBPA86: LBP 86-99 peptide analogue, SEQ ID No.2 (AVQGRWKVRKSFFK)	notably impaired			
LBPA94: LBP 86-99 peptide analogue, SEQ ID No.4, essential a.a. at position +9 (RVQGRWKVAKSFFK)	notably impaired	Reduced levels of cytokine release		significantly increased

Source: patent US7012127B1, “Analogues of lipopolysaccharide-binding protein (LBP)-derived peptides that efficiently neutralize lipopolysaccharides (LPS)” (Centro de Ingenicria Genetica y Biotecnologia, priority 1999, dated 2006)
